Experimental findings from ChEMBL document CHEMBL1201862, “PubChem BioAssay data set” (2004) are described below.

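A five-concentration, 48-hour dose response in 96-well plates underlies each endpoint, interpolated linearly between surrounding concentrations. Abbreviation: GI50, concentration required for 50% inhibition of growth.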 The source made the active and inactive calls. Rule as the data show it: active = GI50 up to about 1.1 µM and inactive = higher.

Among the test systems are MDA-MB-231; HCT-116; HT-29; SF-539; SK-OV-3; LOX IMVI; SK-MEL-28; NCI-H522; SF-268; BT-549; HL-60; MOLT-4; NCI-H23; HCC 2998; CAKI-1; DU-145; TK-10; A498; RPMI-8226.
What all share (test): NCI-60 cell line screen, 48 h

Regarding `CC1=CC(=O)/C(=C/n2c(=S)[nH]c3cc(C)ccc32)C(=O)O1`, the GI50 with MDA-MB-231, with HCT-116, in the experiment with HT-29, with SF-539, in the experiment on SK-OV-3 and in the experiment on LOX IMVI was > 100 µM (inactive) each time. For the same molecule, the GI50 in the experiment on SK-MEL-28 is > 100 µM (inactive); with NCI-H522, > 100 µM (inactive); with SF-268, > 100 µM (inactive); with BT-549, > 100 µM (inactive); with HL-60, 55.6 µM (inactive); in the experiment with MOLT-4 it was > 100 µM (inactive). Besides, the GI50 in the experiment with NCI-H23, with HCC 2998, in the experiment with CAKI-1, with DU-145 and in the experiment on TK-10 was > 100 µM (inactive) throughout.

Turning to `CC(=O)NC1C(OCc2ccccc2)OC(CO)C(O)C1OCC(=O)NC(C)C(=O)NC(CCC(=O)NCCCCCC(=O)Nc1ccc2c(c1)CN1C(=O)c3ccccc3C1=N2)C(N)=O` (centres undefined), the GI50 was > 100 µM (inactive) with MDA-MB-231; 39.6 µM (inactive) with HCT-116; > 100 µM (inactive) in the experiment with HT-29; > 100 µM (inactive) in the experiment on SF-539; > 100 µM (inactive) in the experiment on SK-OV-3; 53.1 µM (inactive) with LOX IMVI. Besides, the GI50 in the experiment with SK-MEL-28 is > 100 µM (inactive); in the experiment with SF-268, 63.8 µM (inactive); in the experiment on A498 it was > 100 µM (inactive); with BT-549, > 100 µM (inactive); in the experiment on HL-60, > 100 µM (inactive); in the experiment with RPMI-8226 it was 38 µM (inactive). Further, the GI50 with MOLT-4 was 42.1 µM (inactive); in the experiment with NCI-H23, 67.5 µM (inactive); in the experiment on HCC 2998, 61.4 µM (inactive); in the experiment with CAKI-1, > 100 µM (inactive); with DU-145, > 100 µM (inactive); in the experiment with TK-10, 30.3 µM (inactive).

Regarding `O=C(NNc1nc(-c2ccccc2)cs1)Nc1ccccc1`, the GI50 was 21.4 µM (inactive) with MDA-MB-231; 25.5 µM (inactive) in the experiment on HCT-116; 29 µM (inactive) in the experiment on HT-29; 22.6 µM (inactive) in the experiment with SK-OV-3; 30.4 µM (inactive) in the experiment with SK-MEL-28; 27.5 µM (inactive) in the experiment on SF-268. The GI50 in the experiment with BT-549 is 25.3 µM (inactive); in the experiment on RPMI-8226, 13.4 µM (inactive); in the experiment on MOLT-4, 27.7 µM (inactive); with NCI-H23, 20.2 µM (inactive); in the experiment on HCC 2998, 25.6 µM (inactive); in the experiment with CAKI-1, 43.3 µM (inactive). Moreover, the GI50 in the experiment with DU-145 is 31.8 µM (inactive); with TK-10, 19.5 µM (inactive).

Take `CC(O)C1(CNc2cc(Cl)nc(N)n2)CCC1` (centres undefined): the GI50 with MDA-MB-231, in the experiment with HCT-116, with HT-29, in the experiment on SF-539, with SK-OV-3 and in the experiment on LOX IMVI was > 100 µM (inactive) in each case. Also, the GI50 in the experiment with SK-MEL-28, in the experiment with NCI-H522, in the experiment with BT-549, in the experiment with HL-60, in the experiment with RPMI-8226 and in the experiment with MOLT-4 was > 100 µM (inactive) in each case. Moreover, the GI50 with NCI-H23, in the experiment with HCC 2998, in the experiment on CAKI-1, in the experiment on DU-145 and with TK-10 was > 100 µM (inactive) in each case.

For the molecule `CCN(CC)CCOCC1CCCN2CCCCC12` (centres undefined), the GI50 with MDA-MB-231, with HCT-116, in the experiment with HT-29, in the experiment with SF-539, in the experiment with SK-OV-3 and in the experiment with LOX IMVI was > 100 µM (inactive) throughout. In addition, the GI50 in the experiment on SK-MEL-28, in the experiment on SF-268, in the experiment with BT-549, in the experiment with HL-60, in the experiment on RPMI-8226 and in the experiment with MOLT-4 was > 100 µM (inactive) each time. The GI50 in the experiment with NCI-H23, with HCC 2998, in the experiment on CAKI-1, with DU-145 and in the experiment on TK-10 was > 100 µM (inactive) each time.

In the case of `COC(=O)[C@H](COC(=O)/C=C/c1ccc(OC(C)=O)c(OC(C)=O)c1)NC(=O)/C=C/c1ccc(OC(C)=O)c(OC(C)=O)c1`, the GI50 with MDA-MB-231 was 17.7 µM (inactive); with HCT-116 it was 16.7 µM (inactive); in the experiment on HT-29 it was 22.3 µM (inactive); in the experiment with SF-539, 45.1 µM (inactive); in the experiment on SK-OV-3, 22.2 µM (inactive); in the experiment with LOX IMVI, 18.4 µM (inactive). In addition, the GI50 in the experiment with SK-MEL-28 is 30.5 µM (inactive); in the experiment on A498, 39.3 µM (inactive); with BT-549, 16.3 µM (inactive); with HL-60 it was > 100 µM (inactive); in the experiment on RPMI-8226, > 100 µM (inactive); with MOLT-4, > 100 µM (inactive). The GI50 in the experiment with NCI-H23 is 22.4 µM (inactive); with HCC 2998 it was 17.6 µM (inactive); with CAKI-1 it was 14 µM (inactive); with DU-145 it was 14.1 µM (inactive).

Take `COC(=O)c1ccc(/C=N/c2ccc(S(N)(=O)=O)cc2)cc1`: the GI50 was > 100 µM (inactive) with MDA-MB-231; 37.1 µM (inactive) with HCT-116; > 100 µM (inactive) in the experiment on HT-29; 38.2 µM (inactive) with SF-539; > 100 µM (inactive) in the experiment with SK-OV-3; 33.5 µM (inactive) in the experiment with LOX IMVI. Besides, the GI50 in the experiment with SK-MEL-28 was > 100 µM (inactive); in the experiment on SF-268, > 100 µM (inactive); in the experiment on A498, > 100 µM (inactive); in the experiment on BT-549, > 100 µM (inactive); in the experiment with HL-60, 97.1 µM (inactive); with RPMI-8226, 30.9 µM (inactive). The GI50 was 38.4 µM (inactive) in the experiment on MOLT-4; 0.0188 µM (active) in the experiment with NCI-H23; > 100 µM (inactive) in the experiment with HCC 2998; > 100 µM (inactive) in the experiment on CAKI-1; > 100 µM (inactive) in the experiment on DU-145; > 100 µM (inactive) in the experiment on TK-10.

For `C[C@]12CC[C@@H]3c4ccc(OS(N)(=O)=O)cc4CC[C@H]3[C@@H]1CCC2=O` [EMATE], the GI50 is 94 µM (inactive) with MDA-MB-231; 30.2 µM (inactive) with HCT-116; 30.1 µM (inactive) with HT-29; 52.2 µM (inactive) in the experiment on SF-539; > 100 µM (inactive) with SK-OV-3; 75.9 µM (inactive) in the experiment on LOX IMVI. In addition, the GI50 in the experiment on SK-MEL-28 is 95.1 µM (inactive); in the experiment on SF-268 it was 32.9 µM (inactive); in the experiment with A498, 97.1 µM (inactive); in the experiment on BT-549, 45 µM (inactive); in the experiment on HL-60 it was 33 µM (inactive); with RPMI-8226 it was 31.1 µM (inactive). Also, the GI50 in the experiment with NCI-H23 was 37.8 µM (inactive); in the experiment with HCC 2998, 49.2 µM (inactive); in the experiment with CAKI-1, > 100 µM (inactive); with DU-145 it was 42.7 µM (inactive); with TK-10, 59.6 µM (inactive).
